From PubChem BioAssay AID179 (DTP/NCI, 2004)
Active and inactive are the calls of the source.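 The calls were made as follows: active = compounds giving half or more protection of infected cells from virus-caused growth loss, again on retest; inactive = the rest.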

System: CEM cells HIV-1 protection, formazan growth assay
Assay: NCI AIDS Antiviral Assay
Conditions: for IC50: measured here: growth of uninfected CEM cells
Summary of the method: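 Category rules: moderately active means at least 50% protection on retest, and confirmed active means 100% protection reproducibly. The underlying data came from a formazan growth assay in HIV-1-infected CEM cells.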

| SMILES | EC50 [µM] | IC50 [µM] | outcome |
| --- | --- | --- | --- |
| COc1cc2c(cc1OC)-c1cc3ccccc3c(=O)n1CCC2 | > 20 | 2.82 | – |
| CC(=O)N=c1ccc2nc(N)nn(O)c-2c1 | > 200 | > 200 | – |
| O=S(=O)(OI(O)CC(F)(F)F)C(F)(F)F | > 200 | > 200 | – |
| Cc1ccccc1NC(=O)C(=O)Cc1nc2ccccc2s1 | > 12 | > 12 | – |
| COc1c2occc2c(CN)c2ccc(=O)oc12 | > 316 | 42.7 | – |
| CCc1nc2ccc(N=Nc3c(O)ccc4ccccc34)cc2[nH]1 | > 58.9 | 24.5 | – |
| N#CNC1=NCCC(=O)N1CCc1c[nH]c2ccccc12 | 70.8 | > 200 | – |
| C#CC(O)/C=C/C(O)CCCC(O)CC#CC(O)C#CC(O)CCCC(O)/C=C/CCCCCC(=O)CCCCCCCCCCCCCC(O)C(O)C#CC(=O)O (configuration not stated) | > 100 | 58.9 | – |
| O=S(=O)(O)c1cc(N=Nc2ccc(O)c3ncccc23)ccc1/C=C/c1ccc(N=Nc2ccc(O)c3ncccc23)cc1S(=O)(=O)O | > 105 | > 105 | – |
| C=CCCCC1CCCNC1=S (configuration not stated) | > 275 | > 275 | – |
| COc1c(-c2ccc(F)cc2)oc2c(CC(=O)O)cccc2c1=O | > 200 | 162 | – |
| O=[N+]([O-])c1ccc2c(c1)NP(=S)(Oc1ccccc1)N2 (configuration not stated) | > 603 | 81.3 | – |
| S=C1C(CCCOCc2ccccc2)C2CCCC23CC2(CCN13)OCCS2 (configuration not stated) | > 200 | 39.8 | – |
| COc1ccc(C(NS(=O)(=O)c2ccc(C)cc2)c2c(C(CBr)OC)c3ccccc3n2S(=O)(=O)c2ccccc2)cc1OC (configuration not stated) | > 151 | 31.6 | – |
| CCOc1ccc(-n2nnc3c(N)nc(N)nc32)cc1 | > 200 | > 200 | – |
| CSC(=NCCCCN=C(NS(=O)(=O)c1ccc(Cl)cc1)SC)NS(=O)(=O)c1ccc(Cl)cc1 | > 200 | > 200 | – |
| N#C/C(=C\c1ccc(O)c(O)c1)C(=S)NCc1ccccc1 | > 200 | 32.4 | – |
| Cc1c(C)c2c(c(N)c1C#N)C(=O)N(NC(=O)c1ccccc1)C2=O | > 200 | 186 | – |
| Cc1ncc([N+](=O)[O-])n1CCNC(=O)CCC(=O)NCCCn1ccnc1[N+](=O)[O-] | > 200 | > 200 | – |
| CCOC(=O)[C@@H]1OC(c2ccccc2)O[C@H]1C(=O)OCC | > 200 | > 200 | – |
| CC1(C)O[C@H]2OC(CO)C(N=[N+]=[N-])[C@H]2O1 (some centres not stated) | > 200 | > 200 | – |

| SMILES | EC50 [µM] | IC50 [µM] | outcome |
| --- | --- | --- | --- |
| NC(N)=N/N=C/c1ccc[nH]1 | > 200 | > 200 | – |
| Brc1cscc1Cc1cscc1Br | > 200 | 74.1 | – |
| Cc1cc(=O)oc2c3c(ccc12)OC(c1ccc(Br)cc1)CC3=O (configuration not stated) | > 200 | 46.8 | – |
| C[N+](C)(C)CC1CCCC(C[N+](C)(C)C)C1=O (configuration not stated) | – | – | inactive |
| Cc1ccc(NC(=O)C(=O)C2NC(=S)NC2=O)c([N+](=O)[O-])c1 (configuration not stated) | > 295 | 129 | – |
| Cc1c2ccccc2nc(CS(C)(=O)=O)[n+]1[O-] | > 200 | > 200 | – |
| CCN(CC)CC(C)(C)C(=O)/C=C/c1ccc(C)cc1 | – | – | inactive |
| O=C(Cc1ccccc1)NN1C(=O)C(Cl)C1c1ccc([N+](=O)[O-])cc1 (configuration not stated) | > 20 | > 20 | – |
| CCN1C[C@]2(COC)C(O)CC(OC)C34[C@@H]5C[C@@]6(O)C(O)[C@@H]5[C@](O)(C(O)[C@@H]6OC)[C@@H](C(OC)[C@@H]32)[C@H]14 (some centres not stated) | – | – | inactive |
| CC(C)(C)OC(=O)NC(Cc1ccccc1)/C(O)=C(\C#N)c1ccc([N+](=O)[O-])cc1 (configuration not stated) | > 200 | 83.2 | – |
| Cc1nnc2n1N=C1CC(C)(C)CC(=O)C1S2 (configuration not stated) | > 105 | > 105 | – |
| Cn1c(O)c(N=NC(=S)NC(=O)C23CC4CC(CC(C4)C2)C3)c2ccccc21 | – | – | inactive |
| Clc1nc(Cl)nc(Nc2ncccn2)n1 | > 200 | > 200 | – |
| CCOc1cc2c(cc1C(C)c1ccc(OC)cc1)OCO2 (configuration not stated) | > 33.1 | 0.214 | – |
| O=c1c2c(F)c(F)c(F)c(F)c2sc2nccn12 | > 200 | 3.89 | – |
| CCOC(=O)N1C2C=C(C)C(ON2C(=O)c2ccccc2)C2C(C)C(=O)N21 (configuration not stated) | > 355 | > 355 | – |
| COC(=O)/C=C1\C(CO[Si](C)(C)C(C)(C)C)OC(n2cc(C)c(=O)n(C)c2=O)C1O[Si](C)(C)C(C)(C)C (configuration not stated) | > 200 | 20.9 | – |
| CC(C)(C)n1[se]c2ccccc2c1=O | > 129 | 9.33 | – |
| COC(=O)C1CC2c3c(c4ccccc4n3C)CC(C1=O)N2C (configuration not stated) | – | – | inactive |
| O=c1c2ccccc2[se]n1-c1ccc(Cl)cc1 | 8.13 | 23.4 | – |
| CC1(C)COC(c2ccc(CC(O)c3ccccc3)cc2)=N1 (configuration not stated) | > 200 | 41.7 | – |

| SMILES | EC50 [µM] | IC50 [µM] | outcome |
| --- | --- | --- | --- |
| COC(=O)c1c(-c2ccccc2)c(C(O)c2ccccc2)n2ccccc12 (configuration not stated) | > 26.3 | 14.1 | – |
| CC(SC(C)C(=O)N/N=C/c1c[nH]c2ccccc12)C(=O)N/N=C\c1c[nH]c2ccccc12 (configuration not stated) | > 200 | 120 | – |
| Cc1c2c(c(C)n1-c1ccccc1)C(=O)N(CCCCN1CCN(c3ccccc3)CC1)C2=O | > 200 | 8.91 | – |
| CC1(C)O[C@]2(C)CC[C@@H]1[C@@H](O)[C@@H]2N1CCCC1 | > 417 | > 417 | – |
| CC(=O)C(N=Nc1ccc(S(=O)(=O)Nc2ccccn2)cc1)C(=O)Nc1ccccc1C (configuration not stated) | > 200 | 4.57 | – |
| CC1=C(C)C2(C#N)C(=O)N3C(=NC(c4ccco4)NC3c3ccco3)C2(C#N)C(c2ccco2)N1 (configuration not stated) | > 200 | > 200 | – |
| COc1ccc(/C=C/C(=O)C(C)(C)CN2CCCCC2)cc1 | > 933 | 10.5 | – |
| O=C1NC(=O)C2C(=O)NC(=O)C1C2Cc1ccco1 (configuration not stated) | > 955 | > 955 | – |
| COC(=O)C(=O)C(C(=O)C(=O)Nc1ccc(Cl)c(Cl)c1)c1nc2ccc(C(=O)c3ccccc3)cc2[nH]c1=O (configuration not stated) | > 33.1 | > 33.1 | – |
| C=C1NC(=O)C(CC(C(=O)C(=O)Nc2c(C)cccc2C(C)(C)C)C(=O)c2ccc3ccccc3c2)C(=O)N1 (configuration not stated) | > 178 | > 178 | – |
| COc1cc(/C=C/C(=O)OCCc2ccccc2)ccc1O | > 8.32 | 5.13 | – |
| C/C=C/CC1(CC)Oc2cccnc2-n2cccc2C1=O (configuration not stated) | > 200 | > 100 | – |
| O=c1oc2ccccc2c(O)c1Sc1c(O)c2ccccc2oc1=O | – | – | inactive |
| O=C1C(C(O)(C(F)(F)Cl)C(F)(F)Cl)CCCC1C(O)(C(F)(F)Cl)C(F)(F)Cl (configuration not stated) | > 200 | 10 | – |
| Cc1cc2c(cc1Cl)SC(NNc1ccc([N+](=O)[O-])cc1)=NS2(=O)=O | – | – | inactive |
| CCOC(=O)C(C#N)C(C)CC (configuration not stated) | > 200 | > 200 | – |
| NC(=O)CCCNC(=O)c1ccccc1SC(=O)CCCC[n+]1ccccc1 | 0.646 | 16.2 | – |
| CCOc1ccc(N2C(=O)/C(=C/c3ccc(N(CCC#N)CCC#N)cc3)N=C2c2cc([N+](=O)[O-])ccc2Cl)cc1 | > 33.1 | 21.4 | – |
| CC(=O)O[C@H]1CC[C@@]2(C)C(=C[C@H](c3ccc(O)cc3)[C@H]3[C@@H]4CC[C@H](OC(C)=O)[C@@]4(C)CC[C@@H]32)C1 | > 200 | 22.9 | – |
| NC(=O)CCNC(=O)c1ccccc1SC(=O)CCCC[n+]1ccccc1 | 1.95 | 174 | – |
